The NIST ThermoML archive (doi:10.1016/j.fluid.2010.04.018)
± gives the expanded uncertainty stated by the source.

Assay: xn = mol fraction of the nth substance listed
Conditions: Liquid, Vibrating tube method

C1CCOC1 [tetrahydrofuran] + O=C=O
Conditions | mass density [kg/m3]
298.15 K, x2 = 0.388 | 906.5 ± 0.2
298.15 K, x2 = 0.47 | 910.1 ± 0.2
298.15 K, x2 = 0.588 | 912.1 ± 0.2
298.15 K, x2 = 0.703 | 906.9 ± 0.3
298.15 K, x2 = 0.828 | 883.3 ± 0.3
298.15 K, x2 = 0.941 | 819.3 ± 1.5
298.15 K, x2 = 0.983 | 763.3 ± 0.5
313.15 K, x2 = 0.301 | 879.8 ± 0.2
313.15 K, x2 = 0.428 | 883.6 ± 0.2
313.15 K, x2 = 0.542 | 883 ± 0.2
313.15 K, x2 = 0.665 | 873.1 ± 0.4
313.15 K, x2 = 0.788 | 842.6 ± 0.8
313.15 K, x2 = 0.881 | 787.7 ± 1.6
313.15 K, x2 = 0.921 | 737.7 ± 3
313.15 K, x2 = 0.938 | 699.9 ± 4.5
